# Experimental data from PubChem BioAssay (NCI).
#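 Grown in 96-well plates, cells were treated for 48 hours with each compound at five concentrations. Insufficient inhibition: endpoint recorded as highest concentration tested. Abbreviation: GI50, concentration required for 50% inhibition of growth. Definition used: TGI = concentration required for complete inhibition of growth.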
# Assays:
# Experiment in all cases: NCI-60 cell line screen, 48 h
# [1] = system: A549 NSCLC
# [2] = system: CCRF-CEM leukemia
# [3] = system: DU-145 prostate
# [4] = system: HCT-116 colon
# [5] = system: HT29 colon
# [6] = system: OVCAR-5 ovarian
# [7] = system: OVCAR-8 ovarian
# [8] = system: SK-MEL-2 melanoma
# [9] = system: SW-620 colon
# [10] = system: UACC-62 melanoma
smiles,measurement,setting,value
N=C(N)c1ccc(NCCOCCNc2ccc(C(=N)N)cc2)cc1,GI50,[1],14.4 µM
same,TGI,[1],> 100 µM
same,GI50,[2],> 100 µM
same,TGI,[2],> 100 µM
same,GI50,[3],27.4 µM
same,TGI,[3],> 100 µM
same,GI50,[4],49.4 µM
same,TGI,[4],> 100 µM
same,GI50,[5],29.5 µM
same,TGI,[5],> 100 µM
same,GI50,[6],> 100 µM
same,TGI,[6],> 100 µM
same,GI50,[7],34.4 µM
same,TGI,[7],> 100 µM
same,GI50,[8],51.6 µM
same,TGI,[8],> 100 µM
same,GI50,[9],63.6 µM
same,TGI,[9],> 100 µM
same,GI50,[10],29.2 µM
same,TGI,[10],> 100 µM
